Tests used:
Settings in all cases: incubation time: 72 h
Hs578T [1] = assay: normalised response (% of control), CellTiter-Glo; higher = more viable cells (100 = DMSO, 0 = benzethonium chloride kill control)
Procedure: (§1)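 DSRT, 72 h incubation, CellTox Green / CellTiter-Glo readout. Signal is normalised to DMSO and benzethonium chloride controls. Value is the normalised response at the highest dose.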

BT-549 [2] = assay: as above
Procedure: as §1

CAL-120 [3] = assay: as above
Procedure: as §1

CAL-85-1 [4] = assay: as above
Procedure: as §1

HCC1937 [5] = assay: as above
Procedure: as §1

HCC1143 [6] = assay: as above
Procedure: as §1

CAL-148 [7] = assay: as above
Procedure: as §1

HDQ-P1 [8] = assay: as above
Procedure: as §1

MFM-223 [9] = assay: as above
Procedure: as §1

MDA-MB-231 [10] = assay: as above
Procedure: as §1

BT-474 [11] = assay: as above
Procedure: as §1

MDA-MB-436 [12] = assay: as above
Procedure: as §1

CAL-51 [13] = assay: as above
Procedure: as §1

MDA-MB-468 [14] = assay: as above
Procedure: as §1

MCF-10A [15] = assay: as above
Procedure: as §1

HCC1599 [16] = assay: as above
Procedure: as §1

DU-4475 [17] = assay: as above
Procedure: as §1

SK-BR-3 = assay: as above
Procedure: as §1

MDA-MB-453 [18] = assay: as above
Procedure: as §1

Hs578T [19] = assay: normalised response (% of control), CellTox Green; higher = less cell death (100 = DMSO, 0 = benzethonium chloride kill control)
How it was run: (§2)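 After 72 h with compound in 384-well plates, breast cancer cell lines seeded as 20 µl suspension were read for CellTox Green fluorescence at 485/520 nm. CellTiter-Glo luminescence was then read after 10 min at room temperature. Compound was present at 5 concentrations in 10-fold steps over a 10,000-fold range set per compound, and plates were normalised to 0.1 % DMSO (100) and a positive kill control (0). Values are normalised signals, each at a single concentration.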

BT-549 [20] = assay: as above
How it was run: as §2

CAL-120 [21] = assay: as above
How it was run: as §2

CAL-85-1 [22] = assay: as above
How it was run: as §2

HCC1937 [23] = assay: as above
How it was run: as §2

HCC1143 [24] = assay: as above
How it was run: as §2

CAL-148 [25] = assay: as above
How it was run: as §2

HDQ-P1 [26] = assay: as above
How it was run: as §2

MFM-223 [27] = assay: as above
How it was run: as §2

MDA-MB-231 [28] = assay: as above
How it was run: as §2

BT-474 [29] = assay: as above
How it was run: as §2

MDA-MB-436 [30] = assay: as above
How it was run: as §2

CAL-51 [31] = assay: as above
How it was run: as §2

MDA-MB-468 [32] = assay: as above
How it was run: as §2

MCF-10A [33] = assay: as above
How it was run: as §2

HCC1599 [34] = assay: as above
How it was run: as §2

DU-4475 [35] = assay: as above
How it was run: as §2

MDA-MB-453 [36] = assay: as above
How it was run: as §2

SMILES | normalised response (Hs578T [1]) | normalised response (BT-549 [2]) | normalised response (CAL-120 [3]) | normalised response (CAL-85-1 [4]) | normalised response (HCC1937 [5]) | normalised response (HCC1143 [6]) | normalised response (CAL-148 [7]) | normalised response (HDQ-P1 [8]) | normalised response (MFM-223 [9]) | normalised response (MDA-MB-231 [10]) | normalised response (BT-474 [11]) | normalised response (MDA-MB-436 [12]) | normalised response (CAL-51 [13]) | normalised response (MDA-MB-468 [14]) | normalised response (MCF-10A [15]) | normalised response (HCC1599 [16]) | normalised response (DU-4475 [17]) | normalised response (SK-BR-3) | normalised response (MDA-MB-453 [18]) | normalised response (Hs578T [19]) | normalised response (BT-549 [20]) | normalised response (CAL-120 [21]) | normalised response (CAL-85-1 [22]) | normalised response (HCC1937 [23]) | normalised response (HCC1143 [24]) | normalised response (CAL-148 [25]) | normalised response (HDQ-P1 [26]) | normalised response (MFM-223 [27]) | normalised response (MDA-MB-231 [28]) | normalised response (BT-474 [29]) | normalised response (MDA-MB-436 [30]) | normalised response (CAL-51 [31]) | normalised response (MDA-MB-468 [32]) | normalised response (MCF-10A [33]) | normalised response (HCC1599 [34]) | normalised response (DU-4475 [35]) | normalised response (MDA-MB-453 [36])
Nc1ncn([C@H]2C[C@H](O)[C@@H](CO)O2)c(=O)n1 [Decitabine] (10000 nM) | 89.4% | 75.2% | 83.9% | 84.5% | 74.9% | 83.6% | 82.6% | 87.8% | 93.3% | 93% | 87.4% | 88.7% | 82.3% | 31.5% | 83.8% | 94.1% | 86.2% | 77.7% | 97.7% | 123% | 130% | 103% | 70% | 113% | 117% | 95.5% | 110% | 90.5% | 126% | 94% | 73.2% | 65.7% | 90% | 92.6% | 113% | 104% | 103%
Nc1ccccc1NC(=O)c1ccc(CNC(=O)OCc2cccnc2)cc1 [Entinostat] (10000 nM) | 48.3% | 31.6% | 73.2% | 41.7% | 67.4% | 19% | 29.8% | 73.2% | 18% | 39.1% | 42% | 71.6% | 31.8% | 19.1% | 82.9% | 32.3% | 5.86% | 14.2% | 21.6% | 110% | 69.9% | 88.6% | 8.15% | 43.6% | 104% | 46.4% | 102% | 74.4% | 29.8% | 54.9% | 38.9% | 29% | -141% | 90.9% | 75.2% | 73.1% | 90.6%
CC[C@H](Nc1ncnc2[nH]cnc12)c1nc2cccc(F)c2c(=O)n1-c1ccccc1 [GS-1101] (10000 nM) | 76.5% | 69.6% | 77.8% | 93.1% | 78.7% | 81.3% | 86% | 71.7% | 77% | 73.6% | 71.4% | 59.8% | 120% | 64.7% | 63% | 107% | 96.3% | 62.9% | 61.8% | 109% | 114% | 98.2% | 96.4% | 94.4% | 99.5% | 79.9% | 61.4% | 95.4% | 86.4% | 97.9% | 111% | 107% | 59.5% | 102% | 93.5% | 95.5% | 73.4%
C=CC(=O)N1CCC[C@@H](n2nc(-c3ccc(Oc4ccccc4)cc3)c3c(N)ncnc32)C1 [Ibrutinib] (1000 nM) | 106% | 110% | 100% | 50.2% | 94.9% | 102% | 101% | 68.3% | 88.4% | 105% | 106% | 109% | 85.7% | 80.7% | 42.5% | 111% | 118% | 24.5% | 73.6% | 92% | 92.3% | 102% | 26.8% | 94.5% | 111% | 86.6% | 74.8% | 100% | 115% | 83.8% | 93% | 87.5% | 75.1% | 76.5% | 106% | 97.2% | 46.3%
O=C(Cc1ccc(-c2ccc(OCCN3CCOCC3)cc2)cn1)NCc1ccccc1 [KX2-391] (10000 nM) | 18.4% | 45.8% | 60.8% | 56.5% | 69.1% | 56.3% | 54.9% | 73.8% | 34.5% | 46.6% | 52% | 26.2% | 25.6% | 28% | 77% | 9.36% | 58.9% | 19.9% | 61.2% | 26.2% | 64.9% | 84% | 45.3% | 12.5% | 110% | 84.2% | 8.87% | 28% | 50.1% | 79.9% | 51% | 48.7% | 45.4% | 50.1% | 67.6% | 97.6% | 99.2%

From the supplement of paper PMC4862054
